Measurements reported in patent US20260327264A1, “PEPTIDE INHIBITORS OF INTERLEUKIN-23 RECEPTOR” (Zealand Pharma A/S, priority 2023, published 2026).
Read-outs that look alike come from different tables or passages of the source. *1 amine or outer side, *2 acyl side, *3 side chain or, on linkers, in order; H or OH if unused. Where a SMILES comes first, the peptide text is derived from it. Bridges are numbered along the chain shown (N, C = ends). [ ]: non-standard residue; d: D form. 2Nal = N[C@@H](Cc1ccc2ccccc2c1)C(=O)O; AEF = NCCOc1ccc(C[C@H](N)C(=O)O)cc1; X1 = O=C(Cc1ccc(CN[*:1])cc1)[*:2]; 3Pal = N[C@@H](Cc1cccnc1)C(=O)O; αMeL = CC(C)C[C@](C)(N)C(=O)O; Dab = NCC[C@H](N)C(=O)O; Sar = CNCC(=O)O

Tests used:
human IL-23R = molecular target: T1, human IL-23R (Homo sapiens, UniProt Q5VWK5); experiment: Binding assay: displacement of fluorophore (TAMRA)-labelled reference compound from human IL-23R (BRET, Nluc-IL23R fusion protein membranes); settings: for potency of the compound (in words): potency against IL-23R; for Emax: read-out: % displacement (hIL-23R binding)
T1 construct: Nanoluc luciferase (Nluc); secretion signal encoded by the plasmid (not specified); expressed in transfected cells; crude membranes used in the assay
T1 sequence (Q5VWK5 22-629): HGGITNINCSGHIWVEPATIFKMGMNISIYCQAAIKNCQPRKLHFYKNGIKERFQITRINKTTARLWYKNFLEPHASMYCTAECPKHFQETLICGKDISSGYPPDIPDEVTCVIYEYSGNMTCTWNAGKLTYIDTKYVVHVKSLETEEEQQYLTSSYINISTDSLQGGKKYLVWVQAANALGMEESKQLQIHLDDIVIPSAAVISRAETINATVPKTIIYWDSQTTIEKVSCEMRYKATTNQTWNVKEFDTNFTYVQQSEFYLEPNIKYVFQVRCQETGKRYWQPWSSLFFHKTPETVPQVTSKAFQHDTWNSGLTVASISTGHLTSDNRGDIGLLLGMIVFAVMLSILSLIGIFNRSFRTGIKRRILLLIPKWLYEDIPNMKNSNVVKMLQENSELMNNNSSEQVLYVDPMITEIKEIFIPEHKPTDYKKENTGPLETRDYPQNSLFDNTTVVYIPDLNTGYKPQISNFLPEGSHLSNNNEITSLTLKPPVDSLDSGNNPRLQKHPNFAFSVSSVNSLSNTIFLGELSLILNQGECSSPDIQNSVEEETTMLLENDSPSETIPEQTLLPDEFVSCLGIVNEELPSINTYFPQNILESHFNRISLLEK

[1] = test system: IL-23 mediated STAT3 signalling (DB cells); experiment: Functional inhibition of IL-23 mediated STAT3 signalling (phospho-STAT3 Tyr705) in DB cells; format: cell-based, human; settings: for hIL-23 (pSTAT3) antagonist % inhibition: Table 3-2, maximal inhibitory response, EC80 of hIL-23
In short: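 DB cells preincubated 15 min with inhibitor at 37° C, 5% CO2, then stimulated 90 min with hIL-23 at EC80. Lysate phospho-STAT3 measured by MSD electrochemiluminescence. Signal normalized to IL-23-alone and buffer wells; IC50 and maximal inhibition from concentration–response curves.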

[2] = EC80 of hIL-23, read-out: IC50 (pSTAT3)
[3] = Table 3-2, EC80 of hIL-23, read-out: hIL-23 (pSTAT3) antagonist IC50

potency of the compound (in words) (human IL-23R) | Emax (human IL-23R) [%] | IC50 [1, 2] [nM] | IC50 [1, 3] [nM] | IC50 (human IL-23R) [nM] | SMILES | hIL-23 (pSTAT3) antagonist % inhibition [1] [%]
particularly potent | 103 | 0.053 | 0.053 | – | CNC(=O)[C@H](Cc1cccnc1)NC(=O)[C@H](CCN)NC(=O)[C@@H]1CCC(=O)NCc2ccc(cc2)CC(=O)N[C@@H](CO)C(=O)N[C@H]2CCC(=O)NCC[C@H](NC(=O)[C@H](CCC(N)=O)NC(=O)[C@H](Cc3c[nH]c4ccccc34)NC2=O)C(=O)N[C@@H](Cc2ccc(OCCN)cc2)C(=O)N[C@@H](Cc2ccc3ccccc3c2)C(=O)N[C@@](C)(CC(C)C)C(=O)N1 [Compound 8, [4-Aminomethyl-phenylacetyl](1c)*SE(2c)WQ[Dab](2c)[Y(2-aminoethoxy)][2-Nal][2-Me-Leu]E(1c)[Dab][3-(3-Pyridyl)-Ala]-[NHMe]] | 101
particularly potent | 100 | 0.025 | 0.025 | – | CC(C)C[C@]1(C)NC(=O)[C@H](Cc2ccc3ccccc3c2)NC(=O)[C@H](Cc2ccc(OCCN)cc2)NC(=O)[C@@H]2CCNC(=O)CC[C@H](NC(=O)[C@H](CO)NC(=O)Cc3ccc(cc3)CNC(=O)CC[C@@H](C(=O)N[C@@H](CCN)C(=O)N[C@@H](Cc3cccnc3)C(=O)N(C)CC(N)=O)NC1=O)C(=O)N[C@@H](Cc1c[nH]c3ccccc13)C(=O)N[C@@H](CCC(N)=O)C(=O)N2 [Compound 9, [4-Aminomethyl-phenylacetyl](1c)*SE(2c)WQ[Dab](2c)[Y(2-aminoethoxy)][2-Nal][2-Me-Leu]E(1c)[Dab][3-(3-Pyridyl)-Ala][Sar]-[NH2]] ([X1]SEWQ[Dab][AEF][2Nal][αMeL]E[Dab][3Pal][Sar]-NH2; lactam 3-6, N-10) | 97
– | 97 | – | 0.026 | – | CNC(=O)[C@H](Cc1cccnc1)NC(=O)[C@H](CCN)NC(=O)[C@@H]1CCC(=O)NCc2ccc(cc2)CC(=O)N[C@@H](C)C(=O)N[C@H]2CCC(=O)NCC[C@H](NC(=O)[C@H](CCC(N)=O)NC(=O)[C@H](Cc3c[nH]c4ccccc34)NC2=O)C(=O)N[C@@H](Cc2ccc(OCCN)cc2)C(=O)N[C@@H](Cc2ccc3ccccc3c2)C(=O)N[C@@](C)(CC(C)C)C(=O)N1 [Compound 20, [4-Aminomethyl-phenylacetyl](1c)*AE(2c)WQ[Dab](2c)[Y(2-aminoethoxy)][2-Nal][2-Me-Leu]E(1c)[Dab][3-(3-Pyridyl)-Ala]-[NHMe]] | 101
– | 96 | – | 0.042 | 0.011 | CNC(=O)CC[C@@H]1NC(=O)[C@H](Cc2c[nH]c3ccccc23)NC(=O)[C@@H]2CCC(=O)NCC[C@H](NC1=O)C(=O)N[C@@H](Cc1ccc(OCCN)cc1)C(=O)N[C@@H](Cc1ccc3ccccc3c1)C(=O)N[C@@](C)(CC(C)C)C(=O)N[C@H](C(=O)N[C@@H](CCN)C(=O)N[C@@H](Cc1cccnc1)C(=O)NC)CCC(=O)NCc1ccc(cc1)CC(=O)N[C@@H](CO)C(=O)N2 [Compound 29, [4-Aminomethyl-phenylacetyl](1c)*SE(2c)W[Q(Me)][Dab](2c)[Y(2-aminoethoxy)][2-Nal][2-Me-Leu]E(1c)[Dab][3-(3-Pyridyl)-Ala]-[NHMe]] ([X1]SEWE(NHMe)[Dab][AEF][2Nal][αMeL]E[Dab][3Pal]-NHMe; lactam 3-6, N-10) | 99
– | 101 | – | 0.54 | – | CNC(=O)[C@H](Cc1cccnc1)NC(=O)[C@H](CCN)NC(=O)[C@@H]1CCC(=O)NCc2ccc(cc2)CC(=O)N[C@@H](C)C(=O)N[C@H]2CCC(=O)NCC[C@H](NC(=O)[C@H](CCC(N)=O)NC(=O)[C@H](Cc3c[nH]c4ccccc34)NC2=O)C(=O)N[C@@H](Cc2c[nH]c3ncccc23)C(=O)N[C@@H](Cc2ccc3ccccc3c2)C(=O)NC(C)(C)C(=O)N1 [Compound 43, [4-Aminomethyl-phenylacetyl](1c)*AE(2c)WQ[Dab](2c)[7-AzaTrp][2-Nal][Aib]E(1c)[Dab][3-(3-Pyridyl)-Ala]-[NHMe]] | 98
